Experimental data reported in patent US20240043427A1 (Gilead Sciences, Inc., priority 2020, published 2024).

How the values were obtained:
CD73 [1] = biological target: T1, CD73 (Homo sapiens (Human), UniProt P21589); format: biochemical; conditions: 1 mM NaH2PO4 in enzyme buffer, CD73 0.3 nM, AMP 15 uM
CD73 [2] = biological target: T1, CD73; assay: MDA-MB-231 Cell Based CD73 Activity Assay (DMEM); conditions: MDA-MB-231-GFP cells, DMEM medium with 10% human plasma, 200 uM AMP
Protocol: MDA-MB-231 Cell Based CD73 Activity Assay (DMEM) MDA-MB-231-GFP cells were seeded in 384-well plates (Greiner 781946) at a density of 3000 cells per well in 50 μL of DMEM medium with 10% HP (human plasma). Cells were plated into assay plate with compounds pre-spotted, for an overnight compound treatment. 50 uL of 400 uM AMP (final concentration will be 200 uM) was added using Bio-tek dispenser. Plates were incubated for 100 mins. […] The samples were analyzed using Rapid fire.

T1 sequence (P21589 27-574): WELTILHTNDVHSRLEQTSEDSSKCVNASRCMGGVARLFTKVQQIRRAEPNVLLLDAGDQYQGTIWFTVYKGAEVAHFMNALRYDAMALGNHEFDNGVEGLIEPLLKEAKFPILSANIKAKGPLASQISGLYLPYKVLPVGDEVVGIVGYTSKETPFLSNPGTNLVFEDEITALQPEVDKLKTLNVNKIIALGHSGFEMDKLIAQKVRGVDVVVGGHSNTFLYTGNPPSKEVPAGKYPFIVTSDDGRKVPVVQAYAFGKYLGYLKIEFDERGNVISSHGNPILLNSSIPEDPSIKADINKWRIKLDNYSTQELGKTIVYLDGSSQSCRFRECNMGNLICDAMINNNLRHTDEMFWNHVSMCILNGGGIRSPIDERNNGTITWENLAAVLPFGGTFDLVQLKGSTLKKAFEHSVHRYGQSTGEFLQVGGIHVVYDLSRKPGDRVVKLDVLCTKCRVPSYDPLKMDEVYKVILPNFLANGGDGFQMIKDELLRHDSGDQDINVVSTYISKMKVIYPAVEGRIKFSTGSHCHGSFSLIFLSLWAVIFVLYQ

| SMILES | IC50 (CD73 [1]) | EC50 (CD73 [2]) |
| --- | --- | --- |
| O=c1[nH]cc(-c2cc([C@H]3C[C@@H]3c3ncc(C(F)(F)F)cc3F)c3nccn3n2)c(=O)[nH]1 (racemic) [Example 582, 5-(8-((1S,2S)-2-(3-fluoro-5-(trifluoromethyl)pyridin-2-yl)cyclopropyl)imidazo[1,2-b]pyridazin-6-yl)pyrimidine-2,4(1H,3H)-dione] | 4.96 nM | 15.6 nM |
| O=c1[nH]cc(-c2cc([C@H]3C[C@@H]3c3ncc(Cl)cc3F)c3ncc(F)n3n2)c(=O)[nH]1 (racemic) [Example 583, 5-(8-((1S,2S)-2-(5-chloro-3-fluoropyridin-2-yl)cyclopropyl)-3-fluoroimidazo[1,2-b]pyridazin-6-yl)pyrimidine-2,4(1H,3H)-dione] | 2.63 nM | 9.53 nM |
| O=c1[nH]cc(-c2cc([C@H]3C[C@@H]3c3cc4c(cn3)cnn4CC(F)(F)F)c3nccn3n2)c(=O)[nH]1 (racemic) [Example 591, 5-(8-((1S,2S)-2-(1-(2,2,2-trifluoroethyl)-1H-pyrazolo[4,3-c]pyridin-6-yl)cyclopropyl)imidazo[1,2-b]pyridazin-6-yl)pyrimidine-2,4(1H,3H)-dione] | 0.72 nM | 0.17 nM |
| O=c1[nH]cc(-c2cc([C@H]3C[C@@H]3c3cc(OCC4CC4(F)F)c(Cl)cn3)c3nccn3n2)c(=O)[nH]1 (mixture of isomers) [Example 597, 5-(8-((1S,2S)-2-(5-chloro-4-((2,2-difluorocyclopropyl)methoxy)pyridin-2-yl)cyclopropyl)imidazo[1,2-b]pyridazin-6-yl)pyrimidine-2,4(1H,3H)-dione] | 2.79 nM | 5.93 nM |
| O=c1[nH]cc(-c2cc([C@H]3C[C@@H]3c3cc(OCC(F)(F)F)c(Cl)cn3)c3nccn3n2)c(=O)[nH]1 (racemic) [Example 600, 5-(8-((1S,2S)-2-(5-chloro-4-(2,2,2-trifluoroethoxy)pyridin-2-yl)cyclopropyl)imidazo[1,2-b]pyridazin-6-yl)pyrimidine-2,4(1H,3H)-dione] | 2.59 nM | 6.64 nM |
| O=c1[nH]cc(-c2cc([C@H]3C[C@@H]3c3ccc4cnn(CC(F)(F)F)c4n3)c3nccn3n2)c(=O)[nH]1 (racemic) [Example 601, 5-(8-((1S,2S)-2-(1-(2,2,2-trifluoroethyl)-1H-pyrazolo[3,4-b]pyridin-6-yl)cyclopropyl)imidazo[1,2-b]pyridazin-6-yl)pyrimidine-2,4(1H,3H)-dione] | 1.16 nM | 0.17 nM |
| O=c1[nH]cc(-c2cc([C@H]3C[C@@H]3c3ccc4cnn(CC(F)(F)F)c4n3)c3ncc(F)n3n2)c(=O)[nH]1 (racemic) [Example 602, 5-(3-fluoro-8-((1S,2S)-2-(1-(2,2,2-trifluoroethyl)-1H-pyrazolo[3,4-b]pyridin-6-yl)cyclopropyl)imidazo[1,2-b]pyridazin-6-yl)pyrimidine-2,4(1H,3H)-dione] | 0.93 nM | 0.53 nM |
| O=c1[nH]cc(-c2cc([C@H]3C[C@@H]3c3cc4c(cn3)cnn4CC(F)(F)F)c3ncc(F)n3n2)c(=O)[nH]1 (racemic) [Example 604, 5-(3-fluoro-8-((1S,2S)-2-(1-(2,2,2-trifluoroethyl)-1H-pyrazolo[4,3-c]pyridin-6-yl)cyclopropyl)imidazo[1,2-b]pyridazin-6-yl)pyrimidine-2,4(1H,3H)-dione] | 0.83 nM | 0.12 nM |
| O=c1[nH]cc(-c2cc([C@H]3C[C@@H]3c3cc4c(cn3)c(C(F)(F)F)nn4CC(F)(F)F)c3nccn3n2)c(=O)[nH]1 (racemic) [Example 608, 5-(8-((1S,2S)-2-(1-(2,2,2-trifluoroethyl)-3-(trifluoromethyl)-1H-pyrazolo[4,3-c]pyridin-6-yl)cyclopropyl)imidazo[1,2-b]pyridazin-6-yl)pyrimidine-2,4(1H,3H)-dione] | 2.36 nM | 0.48 nM |
| O=c1[nH]cc(-c2cc([C@H]3C[C@@H]3c3ccc4c(C(F)(F)F)nc(CC(F)(F)F)n4c3)c3nccn3n2)c(=O)[nH]1 (racemic) [Example 609, 5-(8-((1S,2S)-2-(3-(2,2,2-trifluoroethyl)-1-(trifluoromethyl)imidazo[1,5-a]pyridin-6-yl)cyclopropyl)imidazo[1,2-b]pyridazin-6-yl)pyrimidine-2,4(1H,3H)-dione] | 2.36 nM | 0.39 nM |
| O=c1[nH]cc(-c2cc([C@H]3C[C@@H]3c3ncc4cnn(CC(F)(F)F)c4c3F)c3nccn3n2)c(=O)[nH]1 (racemic) [Example 615, 5-(8-((1S,2S)-2-(7-fluoro-1-(2,2,2-trifluoroethyl)-1H-pyrazolo[4,3-c]pyridin-6-yl)cyclopropyl)imidazo[1,2-b]pyridazin-6-yl)pyrimidine-2,4(1H,3H)-dione] | 1.54 nM | 0.28 nM |

Next, values leading:

| IC50 (CD73 [1]) | EC50 (CD73 [2]) | SMILES |
| --- | --- | --- |
| 2.53 nM | 31.3 nM | O=c1[nH]cc(-c2cc([C@H]3C[C@@H]3c3ccc(OCC(F)(F)F)cc3)c3nccn3n2)c(=O)[nH]1 (racemic) [Example 564, 5-(8-((1S,2S)-2-(4-(2,2,2-trifluoroethoxy)phenyl)cyclopropyl)imidazo[1,2-b]pyridazin-6-yl)pyrimidine-2,4(1H,3H)-dione] |
| 2.84 nM | 8.1 nM | O=c1[nH]cc(-c2cc([C@H]3C[C@@H]3c3ccc(Cl)nc3)c3nccn3n2)c(=O)[nH]1 (racemic) [Example 568, 5-(8-((1S,2S)-2-(6-chloropyridin-3-yl)cyclopropyl)imidazo[1,2-b]pyridazin-6-yl)pyrimidine-2,4(1H,3H)-dione] |
| 0.8 nM | 0.84 nM | Cc1nc2ccc([C@H]3C[C@@H]3c3cc(-c4c[nH]c(=O)[nH]c4=O)nn4ccnc34)cc2s1 (racemic) [Example 570, 5-(8-((1S,2S)-2-(2-methylbenzo[d]thiazol-6-yl)cyclopropyl)imidazo[1,2-b]pyridazin-6-yl)pyrimidine-2,4(1H,3H)-dione] |
| 0.73 nM | 17.3 nM | O=c1[nH]cc(-c2cc([C@H]3C[C@@H]3c3ccc(OCC(F)F)cc3)c3nccn3n2)c(=O)[nH]1 (racemic) [Example 574, 5-(8-((1S,2S)-2-(4-(2,2-difluoroethoxy)phenyl)cyclopropyl)imidazo[1,2-b]pyridazin-6-yl)pyrimidine-2,4(1H,3H)-dione] |
| 2.05 nM | 6.9 nM | O=c1[nH]cc(-c2cc([C@H]3C[C@@H]3c3ccc(Cl)cn3)c3nccn3n2)c(=O)[nH]1 (racemic) [Example 576, 5-(8-((1S,2S)-2-(5-chloropyridin-2-yl)cyclopropyl)imidazo[1,2-b]pyridazin-6-yl)pyrimidine-2,4(1H,3H)-dione] |
| 1.63 nM | 5.79 nM | Cc1nc2ccc([C@H]3C[C@@H]3c3cc(-c4c[nH]c(=O)[nH]c4=O)nn4c(F)cnc34)cc2s1 (racemic) [Example 580, 5-(3-fluoro-8-((1S,2S)-2-(2-methylbenzo[d]thiazol-6-yl)cyclopropyl)imidazo[1,2-b]pyridazin-6-yl)pyrimidine-2,4(1H,3H)-dione] |
| 0.89 nM | 2.16 nM | O=c1[nH]cc(-c2cc([C@H]3C[C@@H]3c3ccc4ncsc4c3)c3ncc(F)n3n2)c(=O)[nH]1 (racemic) [Example 581, 5-(8-((1S,2S)-2-(benzo[d]thiazol-6-yl)cyclopropyl)-3-fluoroimidazo[1,2-b]pyridazin-6-yl)pyrimidine-2,4(1H,3H)-dione] |
| 0.63 nM | 2.56 nM | O=c1[nH]cc(-c2cc([C@H]3C[C@@H]3c3ccc4nc(C(F)F)sc4c3)c3nccn3n2)c(=O)[nH]1 (racemic) [Example 589, 5-(8-((1S,2S)-2-(2-(difluoromethyl)benzo[d]thiazol-6-yl)cyclopropyl)imidazo[1,2-b]pyridazin-6-yl)pyrimidine-2,4(1H,3H)-dione] |
| 1.11 nM | 0.11 nM | O=c1[nH]cc(-c2cc([C@H]3C[C@@H]3c3ccc4ccc(=O)n(CC(F)(F)F)c4c3)c3nccn3n2)c(=O)[nH]1 (racemic) [Example 598, 5-(8-((1S,2S)-2-(2-oxo-1-(2,2,2-trifluoroethyl)-1,2-dihydroquinolin-7-yl)cyclopropyl)imidazo[1,2-b]pyridazin-6-yl)pyrimidine-2,4(1H,3H)-dione] |
| 2.38 nM | 41.2 nM | O=c1[nH]cc(-c2cc([C@H]3C[C@@H]3c3ccc4ccc(OCC(F)(F)F)nc4c3)c3nccn3n2)c(=O)[nH]1 (racemic) [Example 599, 5-(8-((1S,2S)-2-(2-(2,2,2-trifluoroethoxy)quinolin-7-yl)cyclopropyl)imidazo[1,2-b]pyridazin-6-yl)pyrimidine-2,4(1H,3H)-dione] |
| 1.94 nM | 0.09 nM | O=c1[nH]cc(-c2cc([C@H]3C[C@@H]3c3ccc4nc(C(F)(F)F)n(CC(F)(F)F)c4c3)c3nccn3n2)c(=O)[nH]1 (racemic) [Example 603, 5-(8-((1S,2S)-2-(1-(2,2,2-trifluoroethyl)-2-(trifluoromethyl)-1H-benzo[d]imidazol-6-yl)cyclopropyl)imidazo[1,2-b]pyridazin-6-yl)pyrimidine-2,4(1H,3H)-dione] |
| 1.26 nM | 0.12 nM | O=c1[nH]cc(-c2cc([C@H]3C[C@@H]3c3ccc4cnc(CC(F)(F)F)n4c3)c3nccn3n2)c(=O)[nH]1 (racemic) [Example 605, 5-(8-((1S,2S)-2-(3-(2,2,2-trifluoroethyl)imidazo[1,5-a]pyridin-6-yl)cyclopropyl)imidazo[1,2-b]pyridazin-6-yl)pyrimidine-2,4(1H,3H)-dione] |
| 2.3 nM | 0.2 nM | O=c1[nH]cc(-c2cc([C@H]3C[C@@H]3c3ccc4nc5n(c4c3)C(C(F)(F)F)CC5)c3nccn3n2)c(=O)[nH]1 (mixture of isomers) [Example 616, 5-(8-((1S,2S)-2-(1-(trifluoromethyl)-2,3-dihydro-1H-benzo[d]pyrrolo[1,2-a]imidazol-7-yl)cyclopropyl)imidazo[1,2-b]pyridazin-6-yl)pyrimidine-2,4(1H,3H)-dione] |
